Each structure is given as a SMILES string. Positions of bridges follow the written chain, without caps; N, C: chain ends. Non-standard residues stand in square brackets, D forms with d. Residues, ends and D or L forms follow the SMILES beside them. Phe(4-COOH) = N[C@@H](Cc1ccc(C(=O)O)cc1)C(=O)O; Ala(4-thiazolyl) = N[C@@H](Cc1cscn1)C(=O)O; Bip = N[C@@H](Cc1ccc(-c2ccccc2)cc1)C(=O)O; NMeF = CN[C@@H](Cc1ccccc1)C(=O)O; 4Pal = N[C@@H](Cc1ccncc1)C(=O)O; NMeA = CN[C@@H](C)C(=O)O; Dab = NCC[C@H](N)C(=O)O; Dap = NC[C@H](N)C(=O)O; Sar = CNCC(=O)O

For this assay, the target named is T1, human PD-1 (Jurkat-PD-1 cells) / PE-labeled human PD-L1-Ig (Homo sapiens, UniProt Q15116).
T1 construct: expressed in transfected cells; host or cells: Jurkat cell line over-expressing human PD-1
T1 sequence (Q15116 25-288): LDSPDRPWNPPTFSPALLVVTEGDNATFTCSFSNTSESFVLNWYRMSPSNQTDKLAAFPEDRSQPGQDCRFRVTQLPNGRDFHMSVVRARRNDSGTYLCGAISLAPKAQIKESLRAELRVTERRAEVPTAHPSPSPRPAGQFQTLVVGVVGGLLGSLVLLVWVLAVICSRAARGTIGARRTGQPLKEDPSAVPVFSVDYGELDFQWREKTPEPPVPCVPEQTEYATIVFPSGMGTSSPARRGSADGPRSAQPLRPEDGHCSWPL
Kind of assay: Jurkat-PD-1 Cell Binding High-Content Screening Assay (CBA); Jurkat hPD1-PDL1 assay. Particulars: Jurkat cell line over-expressing human PD-1; PE-labeled PD-L1-Ig 20 nM final; compound incubated 2 hours at 37° C.; read-out: Jurkat HPD1-PDL1 IC50. An outline of the steps: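 Jurkat-hPD-1 cells; cpd 2 h, 37° C; then PE-PD-L1-Ig 20 nM final in DMEM/10% FCS; high-content imaging read-out.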

With `CC(C)C[C@@H]1NC(=O)[C@H](CCN)NC(=O)[C@H](Cc2ccccc2)N(C)C(=O)[C@H](C)N(C)C(=O)[C@H](CCCNC(=N)N)NC(=O)[C@H](Cc2ccc(-c3ccccc3)cc2)NC(=O)[C@H](C(C)C)NC(=O)[C@H](Cc2c[nH]c3ccccc23)NC(=O)[C@H](CC(=O)O)NC(=O)[C@H](Cc2ccc(O)cc2)NC(=O)[C@H](CCC(N)=O)NC(=O)CSC[C@@H](C(=O)N[C@@H](C)C(N)=O)NC(=O)[C@H](CO)NC(=O)[C@H](C(C)C)NC1=O` [Example 1307] ({CH2CO}-QYDWV[Bip]R[NMeA][NMeF][Dab]LVSCA-NH2; thioether N-14), the IC50 (commonly the point on the concentration scale where inhibition reaches its midpoint) turned out to be 170 nM.

For the compound `CC(C)C[C@@H]1NC(=O)[C@H](CCN)NC(=O)[C@H](Cc2ccccc2)N(C)C(=O)[C@H](C)N(C)C(=O)[C@H](CCCNC(=N)N)NC(=O)[C@H](Cc2ccc(-c3ccccc3)cc2)NC(=O)[C@H](C(C)C)NC(=O)[C@H](Cc2c[nH]c3ccccc23)NC(=O)[C@H](CC(=O)O)NC(=O)[C@H](Cc2ccc(O)cc2)NC(=O)[C@H](Cc2ccccc2)NC(=O)CSC[C@@H](C(=O)N[C@@H](C)C(N)=O)NC(=O)[C@H]([C@@H](C)O)NC(=O)[C@H](C(C)C)NC1=O` [Example 1322] ({CH2CO}-FYDWV[Bip]R[NMeA][NMeF][Dab]LVTCA-NH2; thioether N-14), the IC50 was 120 nM.

`CC(C)C[C@@H]1NC(=O)[C@H](Cc2c[nH]c3ccccc23)NC(=O)[C@H](CC(=O)O)NC(=O)[C@H](Cc2ccc(C(=O)O)cc2)NC(=O)[C@H](Cc2cnc[nH]2)NC(=O)CSC[C@@H](C(=O)N[C@@H](C)C(N)=O)NC(=O)[C@H](CO)NC(=O)[C@H](C(C)C)NC(=O)[C@H](CC(C)C)NC(=O)[C@H](CC(N)=O)NC(=O)[C@H]2CCCN2C(=O)[C@H](C)N(C)C(=O)[C@H](C(C)C)NC(=O)[C@H](Cc2ccc(-c3ccccc3)cc2)NC1=O` [Example 1046] ({CH2CO}-H[Phe(4-COOH)]DWL[Bip]V[NMeA][dP]NLVSCA-NH2; thioether N-14): the IC50 is 80 nM.

`CC(C)C[C@@H]1NC(=O)[C@H](Cc2c[nH]c3ccccc23)NC(=O)[C@H](CC(=O)O)NC(=O)[C@H](Cc2ccncc2)NC(=O)[C@H](Cc2ccccc2)NC(=O)CSC[C@@H](C(=O)N[C@@H](C)C(N)=O)NC(=O)[C@H](CO)NC(=O)[C@H](C(C)C)NC(=O)[C@H](CC(C)C)NC(=O)[C@H](CC(N)=O)NC(=O)CN(C)C(=O)[C@H](C)N(C)C(=O)[C@H](C(C)C)NC(=O)[C@H](Cc2ccc(-c3ccccc3)cc2)NC1=O` [Example 1064] ({CH2CO}-F[4Pal]DWL[Bip]V[NMeA][Sar]NLVSCA-NH2; thioether N-14): the IC50 was 160 nM.

As for `CC(C)C[C@@H]1NC(=O)[C@H](Cc2c[nH]c3ccccc23)NC(=O)[C@H](CC(=O)O)NC(=O)[C@H](Cc2ccc(C(=O)O)cc2)NC(=O)[C@H](CN)NC(=O)CSC[C@@H](C(=O)N[C@@H](C)C(N)=O)NC(=O)[C@H](CO)NC(=O)[C@H](C(C)C)NC(=O)[C@H](CC(C)C)NC(=O)[C@H](CC(N)=O)NC(=O)[C@H]2CCCN2C(=O)[C@H](C)N(C)C(=O)[C@H](C(C)C)NC(=O)[C@H](Cc2ccc(-c3ccccc3)cc2)NC1=O` [Example 1390] ({CH2CO}-[Dap][Phe(4-COOH)]DWL[Bip]V[NMeA][dP]NLVSCA-NH2; thioether N-14), the IC50 amounted to 20 nM.

Turning to `CC(C)C[C@@H]1NC(=O)[C@H](Cc2c[nH]c3ccccc23)NC(=O)[C@H](CC(=O)O)NC(=O)[C@H](Cc2ccc(O)cc2)NC(=O)[C@H](Cc2cscn2)NC(=O)CSC[C@@H](C(=O)NCC(N)=O)NC(=O)[C@H](CO)NC(=O)[C@H](C(C)C)NC(=O)[C@H](CC(C)C)NC(=O)[C@H](CC(N)=O)NC(=O)CN(C)C(=O)[C@H](C)N(C)C(=O)[C@H](C(C)C)NC(=O)[C@H](Cc2ccc(-c3ccccc3)cc2)NC1=O` [Example 1132] ({CH2CO}-[Ala(4-thiazolyl)]YDWL[Bip]V[NMeA][Sar]NLVSCG-NH2; thioether N-14), the IC50 came out at 530 nM.

The values are drawn from patent publication US20240360178A1, “MACROCYCLIC IMMUNOMODULATORS” (Bristol-Myers Squibb Company, priority 2021, published 2024).
